In US8696867B2, “Disulfo-type fluorescent whitening agents” (Blankophor GmbH & Co. KG, priority 2009, dated 2014):

How the values were obtained:
[1] = Storage stability of approximately 20% aqueous solution; type: physicochemical; conditions: approximately 20% solution, ambient temperature and 4° C., without stirring
Description: The stability behavior was studied by storing an approximately 20% solution of FWA 1 and FWA 2, respectively, at ambient temperature and at 4° C., each without stirring. The aqueous brightener preparations have a shelf-life of more than 30 days both at ambient and low temperature.

[2] = Solubility of fluorescent whitening agent in distilled water (saturated solution); type: physicochemical; conditions: ambient temperature (about 22° C.), grams FWA dissolved in 100 g saturated FWA solution
Description: The solubility of the fluorescent whitening agents was determined as follows: a dry powder of fluorescent whitening agent was added to 50 ml of distilled water until the saturation point was reached. The thus obtained saturated solution was filtered, dried and the dried residue was weighted.
The indicated percentages are based on the amount of grams of fluorescent whitening agent dissolved in 100 g of the corresponding saturated FWA solution.

Compound | crystalline precipitates on storage [1] | solubility [2]
O=C([O-])c1ccc(Nc2nc(Nc3ccc(/C=C/c4ccc(Nc5nc(Nc6ccc(C(=O)[O-])cc6)nc(N(CCO)CCO)n5)cc4S(=O)(=O)[O-])c(S(=O)(=O)[O-])c3)nc(N(CCO)CCO)n2)cc1.[Na+].[Na+].[Na+].[Na+] [FWA 1] | no crystalline precipitates | 27.8%
CC(O)CN(CC(C)O)c1nc(Nc2ccc(C(=O)[O-])cc2)nc(Nc2ccc(/C=C/c3ccc(Nc4nc(Nc5ccc(C(=O)[O-])cc5)nc(N(CC(C)O)CC(C)O)n4)cc3S(=O)(=O)[O-])c(S(=O)(=O)[O-])c2)n1.[Na+].[Na+].[Na+].[Na+] (stereo not shown) [FWA 2] | no crystalline precipitates | 24.2%
